Results taken from ChEMBL document CHEMBL2176888, “Structure-activity relationships in human Toll-like receptor 8-active 2,3-diamino-furo[2,3-c]pyridines” (J Med Chem, 2012).
pEC50: −log10 of the molar value. Calls of active or inactive are those of the source. No cut-off for these calls is given here.

Tests used:
Type in all cases: functional, cell-based
[1] = biological target: Toll-like receptor 4 (Homo sapiens) (UniProt O00206); experiment: Agonist activity at human TLR4 expressed in HEK293 cells assessed as induction of NF-kappaB activity by measuring extracellular secreted alkaline phosphatase up to 250 uM by HEK-blue reporter gene assay
Toll-like receptor 4 (Homo sapiens), sequence (O00206 whole entry): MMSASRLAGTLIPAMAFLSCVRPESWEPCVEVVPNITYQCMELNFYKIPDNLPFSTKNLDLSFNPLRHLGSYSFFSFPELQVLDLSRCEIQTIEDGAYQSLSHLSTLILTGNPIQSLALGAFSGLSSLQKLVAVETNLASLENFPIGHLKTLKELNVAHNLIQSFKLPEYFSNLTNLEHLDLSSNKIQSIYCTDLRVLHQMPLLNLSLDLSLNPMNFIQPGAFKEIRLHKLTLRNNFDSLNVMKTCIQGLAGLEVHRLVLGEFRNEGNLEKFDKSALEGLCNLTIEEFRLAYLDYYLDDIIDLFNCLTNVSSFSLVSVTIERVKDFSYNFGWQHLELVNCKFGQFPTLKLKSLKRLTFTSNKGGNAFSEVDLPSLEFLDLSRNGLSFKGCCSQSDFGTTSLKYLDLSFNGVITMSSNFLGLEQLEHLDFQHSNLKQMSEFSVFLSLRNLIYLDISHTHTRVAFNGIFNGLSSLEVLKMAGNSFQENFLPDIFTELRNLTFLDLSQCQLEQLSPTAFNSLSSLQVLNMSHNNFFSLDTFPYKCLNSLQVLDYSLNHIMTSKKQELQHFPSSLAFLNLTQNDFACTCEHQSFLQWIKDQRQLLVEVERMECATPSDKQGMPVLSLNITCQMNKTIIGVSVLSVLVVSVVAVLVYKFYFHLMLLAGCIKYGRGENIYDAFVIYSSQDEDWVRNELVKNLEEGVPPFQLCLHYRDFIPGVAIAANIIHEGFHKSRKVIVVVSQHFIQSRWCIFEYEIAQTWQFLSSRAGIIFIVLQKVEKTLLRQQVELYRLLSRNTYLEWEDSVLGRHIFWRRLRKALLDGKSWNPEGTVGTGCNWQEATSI

[2] = biological target: Toll-like receptor 3 (Homo sapiens) (UniProt O15455); experiment: Agonist activity at human TLR3 expressed in HEK293 cells assessed as induction of NF-kappaB activity by measuring extracellular secreted alkaline phosphatase up to 250 uM by HEK-blue reporter gene assay
Toll-like receptor 3 (Homo sapiens), sequence (O15455 whole entry): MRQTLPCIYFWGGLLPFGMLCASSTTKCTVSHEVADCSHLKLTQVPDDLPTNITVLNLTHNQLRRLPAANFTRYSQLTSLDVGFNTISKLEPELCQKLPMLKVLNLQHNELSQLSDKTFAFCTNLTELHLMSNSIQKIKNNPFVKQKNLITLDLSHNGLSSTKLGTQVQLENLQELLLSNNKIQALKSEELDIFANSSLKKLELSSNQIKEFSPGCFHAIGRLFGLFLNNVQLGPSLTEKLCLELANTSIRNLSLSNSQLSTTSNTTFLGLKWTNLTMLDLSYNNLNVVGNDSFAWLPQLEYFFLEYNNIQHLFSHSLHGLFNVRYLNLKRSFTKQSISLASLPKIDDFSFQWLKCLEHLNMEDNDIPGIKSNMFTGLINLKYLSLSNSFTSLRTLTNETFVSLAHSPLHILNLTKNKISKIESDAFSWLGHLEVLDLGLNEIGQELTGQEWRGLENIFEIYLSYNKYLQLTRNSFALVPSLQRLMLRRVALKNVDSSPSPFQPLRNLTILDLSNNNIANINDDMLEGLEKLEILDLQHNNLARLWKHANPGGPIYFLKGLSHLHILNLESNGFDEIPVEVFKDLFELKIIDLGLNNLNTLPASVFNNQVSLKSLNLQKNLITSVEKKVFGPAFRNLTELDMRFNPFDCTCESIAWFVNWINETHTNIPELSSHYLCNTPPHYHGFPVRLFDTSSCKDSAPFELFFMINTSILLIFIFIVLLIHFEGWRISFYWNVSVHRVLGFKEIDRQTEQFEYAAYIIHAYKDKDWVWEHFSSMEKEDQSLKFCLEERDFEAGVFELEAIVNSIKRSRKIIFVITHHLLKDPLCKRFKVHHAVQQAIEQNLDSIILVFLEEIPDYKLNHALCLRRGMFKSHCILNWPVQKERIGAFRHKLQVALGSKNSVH

[3] = biological target: T1, Toll-like receptor 9 (Homo sapiens) (UniProt Q9NR96); experiment: Agonist activity at human TLR9 expressed in HEK293 cells assessed as induction of NF-kappaB activity by measuring extracellular secreted alkaline phosphatase up to 250 uM by HEK-blue reporter gene assay
T1 sequence (whole entry): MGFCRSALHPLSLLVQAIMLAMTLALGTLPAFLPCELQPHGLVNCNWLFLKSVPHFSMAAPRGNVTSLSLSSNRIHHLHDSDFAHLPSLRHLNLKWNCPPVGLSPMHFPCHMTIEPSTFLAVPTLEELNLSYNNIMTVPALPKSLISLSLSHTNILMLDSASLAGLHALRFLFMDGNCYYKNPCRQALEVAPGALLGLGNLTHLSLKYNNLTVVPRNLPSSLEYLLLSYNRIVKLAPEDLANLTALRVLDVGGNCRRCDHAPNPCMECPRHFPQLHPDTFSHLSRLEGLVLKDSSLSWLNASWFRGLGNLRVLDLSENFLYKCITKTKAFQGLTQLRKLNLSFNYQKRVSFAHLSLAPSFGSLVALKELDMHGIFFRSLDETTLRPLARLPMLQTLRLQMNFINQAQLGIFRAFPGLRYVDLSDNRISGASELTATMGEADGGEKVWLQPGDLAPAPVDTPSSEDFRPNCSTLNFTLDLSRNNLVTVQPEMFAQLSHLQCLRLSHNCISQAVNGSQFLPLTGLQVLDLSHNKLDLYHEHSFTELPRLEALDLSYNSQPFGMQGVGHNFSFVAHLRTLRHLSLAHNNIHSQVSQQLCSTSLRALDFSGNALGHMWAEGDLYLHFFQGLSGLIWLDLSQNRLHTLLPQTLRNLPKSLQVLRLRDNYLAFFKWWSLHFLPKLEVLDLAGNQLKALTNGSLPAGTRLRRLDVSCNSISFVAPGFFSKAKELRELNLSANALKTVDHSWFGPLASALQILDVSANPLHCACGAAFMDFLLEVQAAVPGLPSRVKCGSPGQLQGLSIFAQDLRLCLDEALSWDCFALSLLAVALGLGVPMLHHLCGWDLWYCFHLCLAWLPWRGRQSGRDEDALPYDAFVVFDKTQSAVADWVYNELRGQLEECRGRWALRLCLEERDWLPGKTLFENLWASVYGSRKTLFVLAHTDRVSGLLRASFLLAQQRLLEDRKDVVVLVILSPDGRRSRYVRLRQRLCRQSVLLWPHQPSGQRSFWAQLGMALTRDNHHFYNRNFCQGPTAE

[4] = biological target: T2, Toll-like receptor 7 (Homo sapiens) (UniProt Q9NYK1); experiment: Agonist activity at human TLR7 expressed in HEK293 cells assessed as induction of NF-kappaB activity by measuring extracellular secreted alkaline phosphatase up to 250 uM by HEK-blue reporter gene assay
T2 sequence (whole entry): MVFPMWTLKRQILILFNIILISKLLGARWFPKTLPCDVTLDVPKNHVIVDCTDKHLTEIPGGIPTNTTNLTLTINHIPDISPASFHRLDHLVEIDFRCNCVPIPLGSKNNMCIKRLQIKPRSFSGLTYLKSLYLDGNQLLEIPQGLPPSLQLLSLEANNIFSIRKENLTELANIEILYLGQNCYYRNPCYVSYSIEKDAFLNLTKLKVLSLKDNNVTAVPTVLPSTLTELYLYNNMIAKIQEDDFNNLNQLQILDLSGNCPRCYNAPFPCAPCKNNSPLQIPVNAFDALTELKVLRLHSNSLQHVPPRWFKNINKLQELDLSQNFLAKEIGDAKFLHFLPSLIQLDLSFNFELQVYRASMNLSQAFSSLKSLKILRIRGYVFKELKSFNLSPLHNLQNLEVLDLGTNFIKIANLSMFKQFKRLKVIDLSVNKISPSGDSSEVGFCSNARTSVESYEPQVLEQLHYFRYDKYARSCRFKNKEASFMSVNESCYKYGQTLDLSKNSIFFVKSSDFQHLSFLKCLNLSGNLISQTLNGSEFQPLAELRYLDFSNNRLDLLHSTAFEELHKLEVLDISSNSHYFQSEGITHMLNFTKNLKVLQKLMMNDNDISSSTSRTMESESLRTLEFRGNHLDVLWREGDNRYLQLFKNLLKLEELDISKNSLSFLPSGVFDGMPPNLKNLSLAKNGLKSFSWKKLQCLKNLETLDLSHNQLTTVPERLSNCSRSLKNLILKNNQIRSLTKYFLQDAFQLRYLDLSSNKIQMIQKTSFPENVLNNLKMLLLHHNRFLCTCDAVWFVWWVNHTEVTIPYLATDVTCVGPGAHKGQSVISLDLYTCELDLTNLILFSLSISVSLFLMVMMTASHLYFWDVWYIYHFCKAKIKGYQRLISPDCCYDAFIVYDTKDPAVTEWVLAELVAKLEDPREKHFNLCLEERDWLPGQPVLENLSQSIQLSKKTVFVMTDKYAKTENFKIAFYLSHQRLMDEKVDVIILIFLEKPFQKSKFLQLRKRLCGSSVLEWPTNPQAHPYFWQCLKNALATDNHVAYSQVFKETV

[5] = biological target: T3, Toll-like receptor 8 (Homo sapiens) (UniProt Q9NR97); experiment: Agonist activity at human TLR8 expressed in HEK293 cells assessed as induction of NF-kappaB activity by measuring extracellular secreted alkaline phosphatase up to 250 uM by HEK-blue reporter gene assay
T3 sequence (whole entry): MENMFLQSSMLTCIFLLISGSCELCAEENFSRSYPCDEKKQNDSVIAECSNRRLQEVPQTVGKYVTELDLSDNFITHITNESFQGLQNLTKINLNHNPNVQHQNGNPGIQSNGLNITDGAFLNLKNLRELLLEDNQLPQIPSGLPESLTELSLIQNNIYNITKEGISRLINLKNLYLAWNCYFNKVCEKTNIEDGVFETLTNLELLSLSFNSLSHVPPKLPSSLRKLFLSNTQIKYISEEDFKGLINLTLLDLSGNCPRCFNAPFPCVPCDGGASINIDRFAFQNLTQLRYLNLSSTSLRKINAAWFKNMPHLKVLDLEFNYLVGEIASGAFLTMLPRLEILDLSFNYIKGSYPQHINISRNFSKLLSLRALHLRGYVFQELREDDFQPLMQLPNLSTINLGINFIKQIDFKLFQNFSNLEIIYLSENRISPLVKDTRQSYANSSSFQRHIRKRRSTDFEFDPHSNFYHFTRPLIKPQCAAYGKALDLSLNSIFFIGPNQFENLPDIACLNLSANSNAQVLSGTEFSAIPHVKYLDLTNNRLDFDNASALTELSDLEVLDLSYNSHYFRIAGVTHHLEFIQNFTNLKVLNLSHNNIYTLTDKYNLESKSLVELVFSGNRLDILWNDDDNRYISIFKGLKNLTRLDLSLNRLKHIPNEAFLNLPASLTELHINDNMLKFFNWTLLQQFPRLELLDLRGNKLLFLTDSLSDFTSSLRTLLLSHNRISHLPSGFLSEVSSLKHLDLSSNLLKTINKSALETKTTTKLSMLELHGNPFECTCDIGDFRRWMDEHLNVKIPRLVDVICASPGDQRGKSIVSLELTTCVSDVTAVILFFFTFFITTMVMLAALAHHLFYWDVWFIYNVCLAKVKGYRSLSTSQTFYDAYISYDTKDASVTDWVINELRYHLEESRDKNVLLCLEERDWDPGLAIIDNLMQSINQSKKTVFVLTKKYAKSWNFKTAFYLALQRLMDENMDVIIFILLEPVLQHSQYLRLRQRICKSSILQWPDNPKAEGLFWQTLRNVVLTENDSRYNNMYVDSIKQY

[6] = biological target: Toll-like receptor 5 (Homo sapiens) (UniProt O60602); experiment: Agonist activity at human TLR5 expressed in HEK293 cells assessed as induction of NF-kappaB activity by measuring extracellular secreted alkaline phosphatase up to 250 uM by HEK-blue reporter gene assay
Toll-like receptor 5 (Homo sapiens), sequence (O60602 whole entry): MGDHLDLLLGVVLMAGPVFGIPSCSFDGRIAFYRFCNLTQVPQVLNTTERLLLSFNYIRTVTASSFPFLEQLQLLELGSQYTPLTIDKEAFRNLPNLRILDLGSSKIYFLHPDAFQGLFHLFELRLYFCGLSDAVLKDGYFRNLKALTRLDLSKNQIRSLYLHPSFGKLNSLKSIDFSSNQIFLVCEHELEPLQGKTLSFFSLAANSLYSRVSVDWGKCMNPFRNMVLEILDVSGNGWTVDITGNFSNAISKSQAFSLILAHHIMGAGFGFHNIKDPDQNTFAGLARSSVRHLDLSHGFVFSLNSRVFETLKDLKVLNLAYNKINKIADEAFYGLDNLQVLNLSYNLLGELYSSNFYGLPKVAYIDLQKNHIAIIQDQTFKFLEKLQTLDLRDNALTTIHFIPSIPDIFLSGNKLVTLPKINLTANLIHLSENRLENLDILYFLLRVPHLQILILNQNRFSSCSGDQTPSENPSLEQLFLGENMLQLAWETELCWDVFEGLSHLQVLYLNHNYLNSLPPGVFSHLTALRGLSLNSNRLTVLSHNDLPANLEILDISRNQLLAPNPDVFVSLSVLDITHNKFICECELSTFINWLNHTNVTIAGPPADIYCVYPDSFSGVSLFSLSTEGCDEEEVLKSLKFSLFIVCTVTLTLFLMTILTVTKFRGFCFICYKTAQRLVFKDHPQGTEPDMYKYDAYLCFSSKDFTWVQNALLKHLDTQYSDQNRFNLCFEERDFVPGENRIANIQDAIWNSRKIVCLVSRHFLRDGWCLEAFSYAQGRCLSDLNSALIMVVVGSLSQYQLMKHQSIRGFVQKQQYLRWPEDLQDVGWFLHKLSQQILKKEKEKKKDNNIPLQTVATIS

Toll-like receptor 8 = biological target: T4, Toll-like receptor 8 (Homo sapiens, UniProt Q9NR97); experiment: Agonist activity at human TLR8 expressed in HEK293 cells assessed as induction of NF-kappaB activity by measuring extracellular secreted alkaline phosphatase by HEK-blue reporter gene assay; details: for EC50: hek293; for pEC50: read-out: EC50
T4 sequence (Q9NR97 whole entry): T3 sequence (whole entry)

Compound: CC(C)(C)Nc1c(-c2ccncc2)nc2cnccn12
- Activity [1]: inactive
- Activity [2]: inactive
- Activity [3]: inactive
- Activity [4]: inactive
- Activity [5]: inactive
- Activity [6]: inactive

Compound: Cc1ncc(CO)c2c(Nc3cnccn3)c(NC(C)(C)C)oc12
- EC50 (Toll-like receptor 8): Not Active

Compound: Cc1ncc(CO)c2c(Nc3cnccn3)c(NCc3ccccc3)oc12
- pEC50 (Toll-like receptor 8): 5.01

Compound: Cc1ncc(CO)c2c(Nc3ccccc3)c(NCc3ccccc3)oc12
- pEC50 (Toll-like receptor 8): 5.77

Compound: CC(C)(C)Nc1c(-c2ccccc2O)nc2ccccn12
- Activity [1]: inactive
- Activity [2]: inactive
- Activity [3]: inactive
- Activity [4]: inactive
- Activity [5]: inactive
- Activity [6]: inactive

Compound: Oc1ccccc1-c1nc2cnccn2c1NCc1ccccc1
- Activity [1]: inactive
- Activity [2]: inactive
- Activity [3]: inactive
- Activity [4]: inactive
- Activity [5]: inactive
- Activity [6]: inactive

Compound: CC(C)(C)Nc1c(-c2ccccc2)nc2cnccn12
- Activity [1]: inactive
- Activity [2]: inactive
- Activity [3]: inactive
- Activity [4]: inactive
- Activity [5]: inactive
- Activity [6]: inactive

Compound: CC(C)(C)Nc1c(-c2ccccc2O)nc2cnccn12
- Activity [1]: inactive
- Activity [2]: inactive
- Activity [3]: inactive
- Activity [4]: inactive
- Activity [5]: inactive
- Activity [6]: inactive

Compound: Nc1nccn2c(NC3CCCCC3)c(-c3ccc(-c4ccccc4)cc3)nc12
- Activity [1]: inactive
- Activity [2]: inactive
- Activity [3]: inactive
- Activity [4]: inactive
- Activity [5]: inactive
- Activity [6]: inactive

Compound: c1ccc(-c2nc3cnccn3c2NC2CCCCC2)cc1
- Activity [1]: inactive
- Activity [2]: inactive
- Activity [3]: inactive
- Activity [4]: inactive
- Activity [5]: inactive
- Activity [6]: inactive

Compound: Cc1ncc(CO)c2c(Nc3ccccn3)c(NC3CCCCC3)oc12
- pEC50 (Toll-like receptor 8): 5.16

Compound: Cc1ncc(CO)c2c(Nc3ccccn3)c(NC(C)C)oc12
- EC50 (Toll-like receptor 8): Not Active

Compound: Cc1ncc(CO)c2c(Nc3ccccn3)c(NC(C)(C)CC(C)(C)C)oc12
- EC50 (Toll-like receptor 8): Not Active

Compound: Oc1ccccc1-c1nc2cnccn2c1NC1CCCCC1
- Activity [1]: inactive
- Activity [2]: inactive
- Activity [3]: inactive
- Activity [4]: inactive
- Activity [5]: inactive
- Activity [6]: inactive

Compound: c1ccn2c(NC3CCCCC3)c(-c3ccncc3)nc2c1
- Activity [1]: inactive
- Activity [2]: inactive
- Activity [3]: inactive
- Activity [4]: inactive
- Activity [5]: inactive
- Activity [6]: inactive

Compound: CCOP(=O)(CNc1oc2c(C)ncc(CO)c2c1Nc1ccccn1)OCC
- EC50 (Toll-like receptor 8): Not Active

Compound: Cc1ncc(CO)c2c(Nc3ccccn3)c(NCCC(=O)OC(C)(C)C)oc12
- pEC50 (Toll-like receptor 8): 5.12

Compound: Cc1ncc(CO)c2c(Nc3cnccn3)c(NC3CCCCC3)oc12
- pEC50 (Toll-like receptor 8): 4.98

Compound: Cc1ncc(CO)c(-c2nc3ccccn3c2NC2CCCCC2)c1OCc1ccccc1
- EC50 (Toll-like receptor 8): Not Active

Compound: Cc1ncc(CO)c2c(Nc3ccccn3)c(NC(C)(C)C)oc12
- EC50 (Toll-like receptor 8): Not Active

Compound: Cc1cccc(Cl)c1Nc1oc2c(C)ncc(CO)c2c1Nc1ccccn1
- EC50 (Toll-like receptor 8): Not Active

Compound: CCOC(=O)CNc1oc2c(C)ncc(CO)c2c1Nc1ccccn1
- EC50 (Toll-like receptor 8): Not Active

Compound: CCCCCNc1oc2c(C)ncc(CO)c2c1Nc1ccccc1
- pEC50 (Toll-like receptor 8): 5.65

Compound: Cc1ncc(CO)c2c(Nc3ccccn3)c(N[C@@H](C)c3ccccc3)oc12
- pEC50 (Toll-like receptor 8): 5.37

Compound: Cc1ncc(CO)c2c(Nc3ccccn3)c(NCCN3CCOCC3)oc12
- EC50 (Toll-like receptor 8): Not Active

Compound: Cc1ncc(CO)c2c(Nc3ccccn3)c(N)oc12
- EC50 (Toll-like receptor 8): Not Active

Compound: CCCC(C)Nc1oc2c(C)ncc(CO)c2c1Nc1ccccn1 (stereo unspecified)
- pEC50 (Toll-like receptor 8): 5.05

Compound: Cc1ncc(CO)c2c(Nc3ccccn3)c(NCCCCCCNc3oc4c(C)ncc(CO)c4c3Nc3ccccn3)oc12
- pEC50 (Toll-like receptor 8): 5.47

Compound: CCCCCNc1oc2c(C)ncc(CO)c2c1Nc1cccc(F)c1
- pEC50 (Toll-like receptor 8): 6.43

Compound: CCCCCNc1oc2c(C)ncc(CO)c2c1Nc1cccc([N+](=O)[O-])c1
- pEC50 (Toll-like receptor 8): 6.07

Compound: COc1ccc(Nc2oc3c(C)ncc(CO)c3c2Nc2ccccn2)cc1
- EC50 (Toll-like receptor 8): Not Active
